Test results as given in US20150105252A1, “SUBSTITUTED PYRAZOLES AS HERBICIDES” (E I DU PONT DE NEMOURS AND COMPANY, priority 2013, published 2015).

How the values were obtained:
barnyardgrass [1] = assay: Test A preemergence; format: in vivo, Echinochloa crus-galli; details: preemergence; for Barnyardgrass plant response rating (0 to 100 scale, 0 is no effect, 100 is complete control): 125 g ai/ha, visual injury approx. 10 days after treatment; for Barnyardgrass plant response rating: 500 g ai/ha, visual injury after approx. 10 days, 0 to 100 scale (0 no effect, 100 complete control)
Procedure, shortened: (§1)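 Ratings express plant response from 0 (no effect) to 100 (complete control), judged visually against untreated controls after approximately 10 days in the greenhouse. Preemergence applications were made as directed soil sprays onto seeded loam–sand mix, and postemergence applications onto 2–10 cm plants at one- to two-leaf stage.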

foxtail, giant [2] = assay: Test A preemergence; format: in vivo, Setaria faberii; details: preemergence; for Foxtail, Giant plant response rating (0 to 100 scale): 125 g ai/ha, visual injury approx. 10 days after treatment; for Foxtail, Giant plant response rating: 500 g ai/ha, visual injury after approx. 10 days, 0 to 100 scale (0 no effect, 100 complete control)
Procedure, shortened: as §1

morningglory = assay: Test A preemergence; format: in vivo, Ipomoea spp.; details: preemergence; for Morningglory plant response rating (0 to 100 scale): 125 g ai/ha, visual injury approx. 10 days after treatment
Procedure, shortened: as §1

velvetleaf [3] = assay: Test A preemergence; format: in vivo, Abutilon theophrasti; details: preemergence; for Velvetleaf plant response rating (0 to 100 scale): 125 g ai/ha, visual injury approx. 10 days after treatment
Procedure, shortened: as §1

velvetleaf [4] = assay: Test A postemergence; format: in vivo, Abutilon theophrasti; details: Postemergence
Procedure, shortened: as §1

barnyardgrass [5] = assay: Test B flood; format: in vivo, Echinochloa crus-galli; details: 250 g ai/ha, visual rating on 0 to 100 scale (0 no effect, 100 complete control), 13 to 15 days
Procedure, shortened: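 Paddy-water application: seedlings at 2-leaf stage, flood depth 3 cm maintained for the test duration. Evaluation after 13–15 days in the greenhouse by eye relative to controls; 0–100 scale.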

ryegrass, Italian = assay: Test C preemergence; format: in vivo, Lolium multiflorum
Procedure, shortened: (§2)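 Greenhouse pot test: preemergence application onto freshly seeded loam/sand mix, postemergence application onto seedlings (1–4 leaves, 2–18 cm) in peat-vermiculite substrate. Responses scored visually 13 to 15 days later relative to controls, where 0 means no effect and 100 means complete control; a dash indicates no result.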

corn = assay: Test C preemergence; format: in vivo, Zea mays
Procedure, shortened: as §2

crabgrass, large = assay: Test C preemergence; format: in vivo, Digitaria sanguinalis
Procedure, shortened: as §2

foxtail, giant [6] = assay: Test C preemergence; format: in vivo, Setaria faberii
Procedure, shortened: as §2

johnsongrass = assay: Test C preemergence; format: in vivo, Sorghum halepense
Procedure, shortened: as §2

ragweed = assay: Test C preemergence; format: in vivo, Ambrosia elation
Procedure, shortened: as §2

barnyardgrass [7] = assay: Test C preemergence; format: in vivo, Echinochloa crus-galli; details: preemergence; for Plant response rating, Barnyardgrass: 125 g ai/ha, scale 0 to 100, 0 = no effect, 100 = complete control
Procedure, shortened: as §2

oilseed rape = assay: Test C preemergence; format: in vivo, Brassica napus
Procedure, shortened: as §2

[8] = 500 g ai/ha, visual injury after approx. 10 days, 0 to 100 scale (0 no effect, 100 complete control)
[9] = 125 g ai/ha, 0 to 100 scale, 0 no effect, 100 complete control
[10] = 500 g ai/ha, 0 to 100 scale (0 no effect, 100 complete control)
[11] = preemergence, 31 g ai/ha, visual rating, scale 0 to 100 (0 no effect, 100 complete control), 13 to 15 days
[12] = preemergence, 62 g ai/ha, scale 0 to 100 (0 no effect, 100 complete control), 13 to 15 days
[13] = preemergence, 125 g ai/ha, 13 to 15 days, scale 0 to 100, 0 = no effect, 100 = complete control
[14] = preemergence, 250 g ai/ha, scale 0 to 100, 0 is no effect, 100 is complete control
[15] = 31 g ai/ha, visual rating, scale 0 to 100 (0 no effect, 100 complete control), 13 to 15 days
[16] = 62 g ai/ha, scale 0 to 100 (0 no effect, 100 complete control), 13 to 15 days
[17] = 250 g ai/ha, scale 0 to 100, 0 is no effect, 100 is complete control
[18] = Preemergence, rate head not shown (block before 16 g ai/ha), scale 0 to 100

CCc1cc(C(=O)NC2CC2)nn1Cc1ccnc(OCC(F)(F)F)c1 [Compound 200]
Barnyardgrass plant response rating (0 to 100 scale, 0 is no effect, 100 is complete control) (barnyardgrass [1]): 90 | Barnyardgrass plant response rating (barnyardgrass [1]): 100 | Foxtail, Giant plant response rating (0 to 100 scale) (foxtail, giant [2]): 100 | Foxtail, Giant plant response rating (foxtail, giant [2]): 100 | Morningglory plant response rating (0 to 100 scale) (morningglory): 40 | Morningglory plant response rating (morningglory; [8]): 100 | Velvetleaf plant response rating (0 to 100 scale) (velvetleaf [3]): 20 | Velvetleaf plant response rating (velvetleaf [3]; [8]): 100 | Velvetleaf plant response rating (velvetleaf [4]; [9]): 80 | Velvetleaf plant response rating (velvetleaf [4]; [10]): 90 | Plant response rating, Barnyardgrass (barnyardgrass [5]): 25 | Ryegrass, Italian plant response rating (ryegrass, Italian; [11]): 0 | Ryegrass, Italian plant response rating (ryegrass, Italian; [12]): 90 | Plant response rating, Ryegrass, Italian (ryegrass, Italian; [13]): 90 | Ryegrass, Italian plant response rating (ryegrass, Italian; [14]): 95 | Corn plant response rating (corn; [11]): 0 | Corn plant response rating (corn; [12]): 15 | Plant response rating, Corn (corn; [13]): 35 | Corn plant response rating (corn; [14]): 80 | Crabgrass, Large plant response rating (crabgrass, large; [11]): 100 | Crabgrass, Large plant response rating (crabgrass, large; [12]): 100 | Plant response rating, Crabgrass, Large (crabgrass, large; [13]): 100 | Crabgrass, Large plant response rating (crabgrass, large; [14]): 100 | Foxtail, Giant plant response rating (foxtail, giant [6]; [11]): 75 | Foxtail, Giant plant response rating (foxtail, giant [6]; [12]): 85 | Plant response rating, Foxtail, Giant (foxtail, giant [6]; [13]): 98 | Foxtail, Giant plant response rating (foxtail, giant [6]; [14]): 100 | Johnsongrass plant response rating (johnsongrass; [11]): 50 | Johnsongrass plant response rating (johnsongrass; [12]): 80 | Plant response rating, Johnsongrass (johnsongrass; [13]): 90 | Johnsongrass plant response rating (johnsongrass; [14]): 98 | Ragweed plant response rating (ragweed; [11]): 5 | Ragweed plant response rating (ragweed; [12]): 35 | Plant response rating, Ragweed (ragweed; [13]): 70 | Ragweed plant response rating (ragweed; [14]): 85 | Barnyardgrass plant response rating (barnyardgrass [7]; [15]): 45 | Barnyardgrass plant response rating (barnyardgrass [7]; [16]): 70 | Plant response rating, Barnyardgrass (barnyardgrass [7]; 13 to 15 days): 90 | Barnyardgrass plant response rating (barnyardgrass [7]; [17]): 98 | Oilseed Rape plant response rating (oilseed rape; [11]): 60 | Oilseed Rape plant response rating (oilseed rape; [12]): 95 | Plant response rating, Oilseed Rape (oilseed rape; [13]): 98 | Oilseed Rape plant response rating (oilseed rape; [14]): 98

CCc1cc(C(=O)NC2CC2)nn1Cc1cc(C(F)(F)C(F)(F)F)nn1C [Compound 226]
Barnyardgrass plant response rating (0 to 100 scale, 0 is no effect, 100 is complete control) (barnyardgrass [1]): 80 | Barnyardgrass plant response rating (barnyardgrass [1]): 100 | Foxtail, Giant plant response rating (0 to 100 scale) (foxtail, giant [2]): 100 | Foxtail, Giant plant response rating (foxtail, giant [2]): 100 | Morningglory plant response rating (0 to 100 scale) (morningglory): 100 | Velvetleaf plant response rating (0 to 100 scale) (velvetleaf [3]): 60 | Velvetleaf plant response rating (velvetleaf [4]; [9]): 50 | Velvetleaf plant response rating (velvetleaf [4]; [10]): 90 | Plant response rating, Barnyardgrass (barnyardgrass [5]): 50 | Plant response rating, Ryegrass, Italian (ryegrass, Italian; [18]): 0 | Ryegrass, Italian plant response rating (ryegrass, Italian; [12]): 5 | Plant response rating, Ryegrass, Italian (ryegrass, Italian; [13]): 35 | Ryegrass, Italian plant response rating (ryegrass, Italian; [14]): 80 | Plant response rating, Corn (corn; Preemergence, rate head not shown (block before 16 g ai/ha), scale 0 to 100, 100 is complete control): 10 | Corn plant response rating (corn; [12]): 15 | Plant response rating, Corn (corn; [13]): 30 | Corn plant response rating (corn; [14]): 70 | Plant response rating, Crabgrass, Large (crabgrass, large; [18]): 80 | Crabgrass, Large plant response rating (crabgrass, large; [12]): 100 | Plant response rating, Crabgrass, Large (crabgrass, large; [13]): 100 | Crabgrass, Large plant response rating (crabgrass, large; [14]): 100 | Plant response rating, Foxtail, Giant (foxtail, giant [6]; [18]): 80 | Foxtail, Giant plant response rating (foxtail, giant [6]; [12]): 90 | Plant response rating, Foxtail, Giant (foxtail, giant [6]; [13]): 100 | Foxtail, Giant plant response rating (foxtail, giant [6]; [14]): 100 | Plant response rating, Johnsongrass (johnsongrass; [18]): 10 | Johnsongrass plant response rating (johnsongrass; [12]): 55 | Plant response rating, Johnsongrass (johnsongrass; [13]): 100 | Johnsongrass plant response rating (johnsongrass; [14]): 85 | Plant response rating, Ragweed (ragweed; [18]): 90 | Ragweed plant response rating (ragweed; [12]): 100 | Plant response rating, Ragweed (ragweed; [13]): 95 | Ragweed plant response rating (ragweed; [14]): 98 | Barnyardgrass plant response rating (barnyardgrass [7]; [15]): 10 | Barnyardgrass plant response rating (barnyardgrass [7]; [16]): 65 | Plant response rating, Barnyardgrass (barnyardgrass [7]; 13 to 15 days): 95 | Barnyardgrass plant response rating (barnyardgrass [7]; [17]): 100 | Plant response rating, Oilseed Rape (oilseed rape; [18]): 30 | Oilseed Rape plant response rating (oilseed rape; [12]): 85 | Plant response rating, Oilseed Rape (oilseed rape; [13]): 100 | Oilseed Rape plant response rating (oilseed rape; [14]): 95
